Assay type in all cases: cell-based, human
The subject of assay [1] is MCF-7 (breast cancer). Description: MTT cell viability assay, MCF-7. The following applies: mean ± SD. The method, then:
(§1) All chemicals, if not stated otherwise, were obtained from Sigma-Aldrich (St. Louis, MO, USA). The MCF-7 cell line was purchased from Cell Lines Services (Eppelheim, Germany), the HeLa and HCT-116 cell lines were obtained from the Department of Microbiology, Tumor and Cell Biology, Karolinska Institute (Stockholm, Sweden). Cells were cultured in Dulbecco’s modified Eagle’s medium (DMEM) supplemented with 10% fetal bovine serum, 2 mM glutamine, 100 units/mL penicillin, and 100 μg/mL streptomycin. Cultures were maintained in a humidified atmosphere with 5% CO2 at 37 °C in an incubator (HeraCell, Heraeus, Langenselbold, Germany).
(§2) Cell viability was determined using the MTT (3-(4,5-dimethylthiazol-2-yl)-2,5-diphenyl-tetrazoliumbromide) assay. Stock solutions of the studied compounds were prepared in 100% DMSO. […] Cells were seeded in 96-well plates at a density of 5 × 10^3 cells/well and treated for 72 h with the examined compounds in the concentration range 1–100 μM (1, 10, 25, 50 and 100 μM). Following treatment, MTT (0.5 mg/mL) was added to the medium and cells were further incubated for 2 h at 37 °C. Cells were lysed with DMSO and the absorbance of the formazan solution was measured at 550 nm with a plate reader (1420 multilabel counter, Victor, Jügesheim, Germany). […] The experiment was performed in triplicate. Values are expressed as the mean ± SD of at least three independent experiments.
A general note: Tetrazolium assays rely on reduction of a dye to a coloured formazan, in cell work by metabolically active cells.

In assay [2] the test system is HCT-116 (colon cancer). Description: MTT cell viability assay, HCT-116. The following applies: Homo sapiens, HCT-116, 72 h, 72 h of incubation, mean ± SD. As to the method:
as §1, §2

Assay [3] concerns HeLa (cervical cancer). Description: MTT cell viability assay, HeLa. Particulars: Homo sapiens, 72 h; for IC50: 72 h of incubation, mean ± SD. As to the method: as §1, §2
The mark [4] stands for this setting: Homo sapiens, MCF7, 72 h of incubation.

With `COc1ccc(-c2cnnc(NS(=O)(=O)c3cc(C(=O)Nc4ccccc4)c(Cl)cc3SCc3ccccc3)n2)cc1` [Compound 42, 4-Benzylthio-2-chloro-5-{N-[5-(4-methoxyphenyl)-1,2,4-triazin-3-yl]sulfamoyl}-N-phenylbenzamide], the 50% inhibitory concentration (IC50) was found to be 83 ± 2 µM in assay [1] (setting [4]), 77 ± 2 µM in assay [2] and 82 ± 1 µM in assay [3].

Consider `COc1ccc(-c2cnnc(NS(=O)(=O)c3cc(C(=O)Nc4ccccc4)c(Cl)cc3SCc3ccccc3)n2)cc1OC` [Compound 44, 4-Benzylthio-2-chloro-5-{N-[5-(3,4-dimethoxyphenyl)-1,2,4-triazin-3-yl]sulfamoyl}-N-phenylbenzamide], for which the IC50 in assay [1] (setting [4]) turned out to be 90 ± 5 µM; in assay [2] it was 160 ± 6 µM; in assay [3], 160 ± 8 µM.

Regarding `COc1ccc(-c2cnnc(NS(=O)(=O)c3cc(C(=O)Nc4ccc(Cl)cc4)c(Cl)cc3SCc3ccccc3)n2)cc1OC` [Compound 49, 4-Benzylthio-2-chloro-N-(4-chlorophenyl)-5-{N-[5-(3,4-dimethoxyphenyl)-1,2,4-triazin-3-yl]sulfamoyl}-benzamide], the IC50 in assay [1] (setting [4]) came to 81 ± 5 µM; in assay [2], 110 ± 2 µM; in assay [3] it was 120 ± 6 µM.

With `COc1ccc(NC(=O)c2cc(S(=O)(=O)Nc3nncc(-c4ccc(OC)c(OC)c4)n3)c(SCc3ccccc3)cc2Cl)cc1` [Compound 59, 4-Benzylthio-2-chloro-5-{N-[5-(3,4-dimethoxyphenyl)-1,2,4-triazin-3-yl]sulfamoyl}-N-(4-methoxyphenyl)-benzamide], the values for the IC50 in assay [1] (setting [4]), in assay [2] and in assay [3] were 100 ± 5 µM, 140 ± 5 µM and 150 ± 2 µM, respectively.

For `COc1ccc(-c2cnnc(NS(=O)(=O)c3cc(C)c(Cl)cc3SCc3ccccc3)n2)cc1` [Compound 29, 2-Benzylthio-4-chloro-N-[5-(4-methoxyphenyl)-1,2,4-triazin-3-yl]-5-methylbenzenesulfonamide], the values for the half-inhibitory concentration (IC50) in assay [1] (setting [4]), in assay [2] and in assay [3] were 110 ± 2 µM, 720 ± 36 µM and 190 ± 7 µM, respectively.

On to `Cc1ccc(NC(=O)c2cc(S(=O)(=O)Nc3nncc(-c4cccc(F)c4)n3)c(SCc3ccccc3)cc2Cl)cc1` [Compound 51, 4-Benzylthio-2-chloro-5-{N-[5-(3-fluorophenyl)-1,2,4-triazin-3-yl]sulfamoyl}-N-(4-methylphenyl)benzamide], for which the concentration for half-maximal inhibition (IC50) in assay [1] (setting [4]) is 95 ± 5 µM; in assay [2], 190 ± 13 µM. In addition, the viability at 100 µM in assay [3] (HeLa, 100 μM, read-out: Viability of cell line at 100 μM (HeLa)) worked out at 100%.

`COc1cccc(-c2cnnc(NS(=O)(=O)c3cc(C(=O)Nc4ccc(Cl)cc4)c(Cl)cc3SCc3ccccc3)n2)c1` [Compound 48, 4-Benzylthio-2-chloro-N-(4-chlorophenyl)-5-{N-[5-(3-methoxyphenyl)-1,2,4-triazin-3-yl]sulfamoyl}-benzamide]: the IC50 in assay [1] (setting [4]) was found to be 87 ± 3 µM; in assay [2], 80 ± 3 µM; in assay [3], 80 ± 2 µM.

Regarding `COc1ccc(NC(=O)c2cc(S(=O)(=O)Nc3nncc(-c4cccc(OC)c4)n3)c(SCc3ccccc3)cc2Cl)cc1` [Compound 58, 4-Benzylthio-2-chloro-N-(4-methoxyphenyl)-5-{N-[5-(3-methoxyphenyl)-1,2,4-triazin-3-yl]sulfamoyl}benzamide], the IC50 in assay [1] (setting [4]) came out at 92 ± 6 µM; in assay [2] it was 98 ± 2 µM; in assay [3], 88 ± 6 µM.

On to `COc1cc(-c2cnnc(NS(=O)(=O)c3cc(C(=O)Nc4ccc(Cl)cc4)c(Cl)cc3SCc3ccccc3)n2)cc(OC)c1OC` [Compound 50, 4-Benzylthio-2-chloro-N-(4-chlorophenyl)-5-{N-[5-(3,4,5-trimethoxyphenyl)-1,2,4-triazin-3-yl]sulfamoyl}-benzamide], for which the IC50 in assay [1] (setting [4]) worked out at 120 ± 4 µM; in assay [2], 115 ± 3 µM; in assay [3], 130 ± 8 µM.

Regarding `COc1ccc(-c2cnnc(NS(=O)(=O)c3cc(C(=O)Nc4ccc(C)cc4)c(Cl)cc3SCc3ccccc3)n2)cc1OC` [Compound 55, 4-Benzylthio-2-chloro-5-{N-[5-(3,4-dimethoxyphenyl)-1,2,4-triazin-3-yl]sulfamoyl}-N-(4-methylphenyl)-benzamide], the results for the half-maximal inhibitory concentration (IC50) in assay [1] (setting [4]), in assay [2] and in assay [3] were 150 ± 6 µM, 150 ± 3 µM and 105 ± 4 µM, respectively.

Turning to `COc1ccc(NC(=O)c2cc(S(=O)(=O)Nc3nncc(-c4cc(OC)c(OC)c(OC)c4)n3)c(SCc3ccccc3)cc2Cl)cc1` [Compound 60, 4-Benzylthio-2-chloro-N-(4-methoxyphenyl)-5-{N-[5-(3,4,5-trimethoxyphenyl)-1,2,4-triazin-3-yl]sulfamoyl}-benzamide], the figures for the 50% inhibitory concentration (IC50) in assay [1] (setting [4]), in assay [2] and in assay [3] were 270 ± 13 µM, 230 ± 18 µM and 230 ± 5 µM, respectively.

Turning to `COc1ccc(NC(=O)c2cc(S(=O)(=O)Nc3nncc(-c4ccc(OC)cc4)n3)c(SCc3ccccc3)cc2Cl)cc1` [Compound 57, 4-Benzylthio-2-chloro-N-(4-methoxyphenyl)-5-{N-[5-(4-methoxyphenyl)-1,2,4-triazin-3-yl]sulfamoyl}benzamide], the IC50 is 90 ± 1 µM in assay [1] (setting [4]), 73 ± 1 µM in assay [2] and 80 ± 1 µM in assay [3].

Turning to `Cc1cc(S(=O)(=O)Nc2nncc(-c3cccc(F)c3)n2)c(SCc2ccc(C(F)(F)F)cc2)cc1Cl` [Compound 33, 4-Chloro-N-[5-(3-fluorophenyl)-1,2,4-triazin-3-yl]-5-methyl-2-[4-(trifluoromethyl)benzylthio]benzenesulfonamide], the IC50 in assay [1] (setting [4]) turned out to be 88 ± 1 µM; in assay [2] it was 67 ± 1 µM; in assay [3], 76 ± 3 µM.

In the case of `COc1cc(-c2cnnc(NS(=O)(=O)c3cc(C)c(Cl)cc3SCc3ccccc3)n2)cc(OC)c1OC` [Compound 32, 2-Benzylthio-4-chloro-5-methyl-N-[5-(3,4,5-trimethoxyphenyl)-1,2,4-triazin-3-yl]benzenesulfonamide], the IC50 in assay [1] (setting [4]) came to 87 ± 4 µM; in assay [2], 88 ± 3 µM; in assay [3], 87 ± 4 µM.

With `Cc1cc(S(=O)(=O)Nc2nncc(-c3cccc(F)c3)n2)c(SCc2ccccc2)cc1Cl` [Compound 27, 2-Benzylthio-4-chloro-N-[5-(3-fluorophenyl)-1,2,4-triazin-3-yl]-5-methylbenzenesulfonamide], the figures for the half-maximal inhibitory concentration (IC50) in assay [1] (setting [4]), in assay [2] and in assay [3] were 80 ± 2 µM, 75 ± 1 µM and 84 ± 1 µM, respectively.

Take `COc1cccc(-c2cnnc(NS(=O)(=O)c3cc(C(=O)Nc4ccccc4)c(Cl)cc3SCc3ccccc3)n2)c1` [Compound 43, 4-Benzylthio-2-chloro-5-{N-[5-(3-methoxyphenyl)-1,2,4-triazin-3-yl]sulfamoyl}-N-phenylbenzamide]: the IC50 in assay [1] (setting [4]) stood at 87 ± 2 µM; in assay [2] it was 92 ± 3 µM; in assay [3], 130 ± 10 µM.

On to `COc1cc(-c2cnnc(NS(=O)(=O)c3cc(C(=O)Nc4ccc(C)cc4)c(Cl)cc3SCc3ccccc3)n2)cc(OC)c1OC` [Compound 56, 4-Benzylthio-2-chloro-N-(4-methylphenyl)-5-{N-[5-(3,4,5-trimethoxyphenyl)-1,2,4-triazin-3-yl]sulfamoyl}-benzamide], for which the IC50 stood at 89 ± 3 µM in assay [1] (setting [4]), 75 ± 2 µM in assay [2] and 80 ± 2 µM in assay [3].

For `N.N.[Cl][Pt][Cl]` [Cisplatin, reference compound], the IC50 in assay [1] (72 h of incubation) amounted to 3 ± 0.1 µM.

With `COc1ccc(-c2cnnc(NS(=O)(=O)c3cc(C)c(Cl)cc3SCc3c(C)noc3C)n2)cc1` [Compound 41, 4-Chloro-2-[(3,5-dimethylizoxazol-4-yl)methylthio]-N-[5-(4-methoxyphenyl)-1,2,4-triazin-3-yl]-5-methyl-benzenesulfonamide], the IC50 is 99 ± 1 µM in assay [1] (setting [4]), 97 ± 2 µM in assay [2] and 85 ± 1 µM in assay [3].

Turning to `COc1ccc(-c2cnnc(NS(=O)(=O)c3cc(C(=O)Nc4ccc(C)cc4)c(Cl)cc3SCc3ccccc3)n2)cc1` [Compound 53, 4-Benzylthio-2-chloro-5-{N-[5-(4-methoxyphenyl)-1,2,4-triazin-3-yl]sulfamoyl}-N-(4-methylphenyl)-benzamide], the half-inhibitory concentration (IC50) was 88 ± 2 µM in assay [1] (setting [4]), 76 ± 2 µM in assay [2] and 74 ± 2 µM in assay [3].

For `COc1cccc(-c2cnnc(NS(=O)(=O)c3cc(C(=O)Nc4ccc(C)cc4)c(Cl)cc3SCc3ccccc3)n2)c1` [Compound 54, 4-Benzylthio-2-chloro-5-{N-[5-(3-methoxyphenyl)-1,2,4-triazin-3-yl]sulfamoyl}-N-(4-methylphenyl)benzamide], the 50% inhibitory concentration (IC50) amounted to 96 ± 5 µM in assay [1] (setting [4]), 84 ± 5 µM in assay [2] and 82 ± 1 µM in assay [3].

`O=C(Nc1ccc(Cl)cc1)c1cc(S(=O)(=O)Nc2nncc(-c3cccc(F)c3)n2)c(SCc2ccccc2)cc1Cl` [Compound 45, 4-Benzylthio-2-chloro-N-(4-chlorophenyl)-5-{N-[5-(3-fluorophenyl)-1,2,4-triazin-3-yl]sulfamoyl}benzamide]: the IC50 in assay [1] (setting [4]) came to 90 ± 1 µM; in assay [2] it was 97 ± 2 µM; in assay [3], 82 ± 1 µM.

For orientation: IC50 means the point on the concentration scale where inhibition reaches its midpoint. A lower IC50 goes with higher potency. Usually viability stands for a per cent measure of how many cells are alive, often set against a control.

The values are drawn from paper PMC6273912, “Novel 5-Substituted 2-(Aylmethylthio)-4-chloro-N-(5-aryl-1,2,4-triazin-3-yl)benzenesulfonamides: Synthesis, Molecular Structure, Anticancer Activity, Apoptosis-Inducing Activity and Metabolic Stability” (Molecules, 2016).
